Test results published in patent publication US10561638B2, “Methods for treating dependence” (Biotie Therapies, Inc., priority 2007, dated 2020).
“Also recorded” adds a separate entry of the source. Each block holds one compound with its values, some of them ahead of it.

What was measured:
[1] = Pilot observation studies in rats, acute and repeated oral administration
[2] = test system: short-term or working memory in rats; assay: Delayed-matching-to-position (DMTP) test; assay type: in vivo, Sprague Dawley rats
Protocol: In the present DMTP study, rats were trained to remember the position of a lever across a scheduled delay of either 0, 8, 16 or 32 s in order to earn food reward. […] Another group of rats received only vehicle treatment throughout the experiment. […] The dependent measures in the present study included percentage of correct choices, the latency to make choice responses and the number of trials which the animals were able to complete during the 70 min test sessions. Changes in the former measure may indicate changes in memory and/or attentional function whereas changes in the latter two measures may be indicative of other non-cognitive effects of the drugs. Matching to position training began next. This and all subsequent training was conducted with the partitions fitted into the operant boxes. The sessions were initially 50 minutes long. Rats were placed in the operant box and the session began when the houselight was illuminated. Following a 30 s intertrial interval (ITI), one of the two levers (the sample lever) was inserted into the chamber. The lever remained inserted into the chamber until a lever-press response occurred. […] As soon as the magazine flap was pressed the magazine light was extinguished and both levers were inserted. […] The magazine light remained on until the flap was pressed. […] A 30 s ITI was initiated before the commencement of a new trial. The lever inserted as the sample lever was semi-randomly determined such that the right and lefthand levers were presented as the sample lever 8 times in a block of 16 trials. Following 24 sessions, the animals were performing the matching to position task with a high degree of accuracy. On Session 25 a variable delay interval was interposed between the depression of the sample lever and presentation of the levers on the choice trial. After a response to the sample lever, the choice levers were inserted following the first flap press occurring after either a 0 s (immediate), 4, 8 or 16 s delay. The order of the four types of trials (0, 4, 8 or 16 s delay) was semi-randomly determined with the constraint that in a 16 trial block, each delay occurred 4 times; twice on a left trial and twice on a right trial. […] The same trial was reinstated following the end of the ITI. From Session 25 onward the time-out period following incorrect choices was omitted and the session length was increased to 70 minutes. […] Due to poor performance at the 64 s delay, however, this delay was not used in any further sessions. On Session 59, delays of 0, 8, 16 and 32 s were used. These delays were used in all subsequent sessions. Only 51 of the 56 rats completed more than 24 trials (correction plus non-correction) during Session 59. These rats were selected and semi-randomly assigned to the following 7 groups such that the groups were matched on performance (percent correct, response latency and number of trials completed): […] Thus, the drug treatments administered to the seven groups during the 11 consecutive days of the present experiment were: The data collected and analyzed in the present DMTP study include 1) the percentage of correct responses; 2) the latency between performance of a response to the sample lever and the performance of the choice response and 3) the total number of correction and non-correction trials completed. The former two dependent measures were collected for the non-correction trials only. […] Two-way analysis of variance (ANOVA) with drug treatment as the between-subjects factor and delay (0, 8, 16 or 32 s) as the within-subjects factor was used to analyze percentage of correct choices and response latency. These analyses were conducted separately for each block of data. Significant interactions were followed by a one-way ANOVA which was conducted at each delay. A significant main effect from a one-way ANOVA was followed by a two-tailed Dunnett's t-test. One-way ANOVA followed by a post hoc Dunnett's test, when appropriate, was used to analyze the mean number of trials completed. […]

[3] = test system: MPTP-lesioned squirrel monkey; assay: MPTP-lesioned squirrel monkey Parkinsonian model; assay type: in vivo, squirrel monkeys
Protocol: Twenty four squirrel monkeys, fourteen females and ten males were used in a Parkinsonian model. The twenty-four animals were randomly assigned to one of four treatment groups, with 6 animals per group. The groups consisted of the following: Group A (6 animals) received placebo (water) treatment; Group B (5 animals) received drug nepicastat at 1 mg/kg/day (0.5 mg/kg twice daily); Group C (6 animals) received 4 mg/kg/day (2 mg/kg twice daily); and Group D (6 animals) received 10 mg/kg/day (5 mg/kg twice daily). In Group B, one animal died acutely following MPTP-lesioning, and was not replaced.
Prior to lesioning, animals were subjected to quantitative assessment of spontaneous motor activity using an infrared activity monitor (IRAM) cage. All recording sessions were 60 minutes in length and were carried out for 10 sessions over a period of 2 weeks. The behavior of animals was also assessed by 1 to 3 clinical raters using a parkinsonian clinical rating scale (CRS) once per day (12 noon to 1 pm) for 3 to 5 consecutive days. […] Both the activity monitoring (IRAM) and clinical rating assessments established the mean base-line activity of each animal.
Animals were lesioned by the administration of MPTP at a concentration of 2.0 mg/kg (free-base) via subcutaneous injection to achieve a parkinsonian state. A post-MPTP lesioning behavioral assessment was carried out 2 to 4 weeks after the last MPTP-lesioning. Locomotor activity was monitored by IRAM in 60-minute sessions for 3 to 5 days. Clinical behavior (CAS) was assessed by one to three individuals rating over a period of 3 to 5 days.
Animals were tested for response to L-Dopa and the efficacy of drug nepicastat. Testing was carried out 4 to 12 weeks after the last MPTP dose. L-Dopa was administered at a concentration of either 2.5, 5, or 7.5 mg/kg by oral gavage twice daily (at 10 am and 2 pm) for 7 consecutive days. Behavior was determined by IRAM and CRS. Clinical rating was carried out 60 to 90 minutes following the 10 am morning dose on the last 4 days of treatment. Raters (one to three individuals) were blinded to the different treatment groups. IRAM assessment were preformed for 90 minutes immediately following drug administration at 2 pm on the last 2 to 5 days of drug treatment. There was a minimum 2 day washout period between each treatment dose.
Nepicastat or water (as placebo) was administered for 12 days following a minimum 2 day washout after L-Dopa dosing. Drug was administered twice daily at 10 am and 2 pm by oral gavage. Behavior was rated by IRAM and CRS. The CRS was conducted in the morning, 60 to 90 minutes after the 10 am dose of nepicastat on the last 5 days of drug treatment. Raters (one to three individuals) were blinded to the different treatment groups. IRAM assessments were preformed for 90 minutes immediately following drug administration at 2 pm on the last 5 days of drug treatment.
Eight parkinsonian features were rated in each animal and the total score was derived from the sum of these eight features. For each animal, a single clinical rating score was obtained for each drug dose by averaging the clinical rating scores of all raters (one to three) conducted over the consecutive multiple dosing (with the same dose) days. This average CRS was used for statistical analysis. A lower score was considered a less parkinsonian behavioral state.
Statistical analysis consisted of: (1) comparisons between the average CRS of placebo to nepicastat at 1, 4, and 10 mg/kg/day using the Kruskal-Wallis (non-parametric analysis of variance). This comparison was repeated using the average CRS for each experimental drug concentration corrected by the final post-MPTP ratings for each animal. The corrected clinical scores are clinical scores of experimental drug at each concentration as a ratio of post-MPTP clinical scores. […]

[4] = in vivo
Protocol: The pharmacokinetics of nepicastat after a single 40 mg dose was compared in men and women.

serum T3 and T4 levels = assay: Thyroid function (serum T3, T4) in iodine-deficient rats; assay type: in vivo, Sprague-Dawley rats; conditions: for reduction in serum T3 / reduction in serum T4: 1 mg/kg po b.i.d.; for effect on serum T3 and T4 levels: methimazole 1 mg/kg b.i.d. (2 mg/kg/d)
Protocol: Since the heterocyclic portion of nepicastat is structurally similar to methimazole, a known potent suppressor of mammalian thyroid function, the effects of nepicastat on thyroid function were evaluated at doses of 2.0 and 6.2 mg/kg, po, b.i.d in iodine-deficient Sprague-Dawley rats (n=9-12) for 10 days.
Male Sprague-Dawley rats, weighing 180-200 grams, were fed an iodine deficient diet (Purina, 5891C, Lot 1478, 0.066±0.042 mg iodine/kg sample) ad libitum 14 days prior to treatment. Animals were weighed and randomly assigned to one of the following treatment groups (n=12 per group): nepicastat at 2.0 mg/kg, nepicastat at 6.2 mg/kg, Methimazole at 1 mg/kg, or vehicle at 1 ml/kg. Each group of rats was dosed orally in the evening and the following morning, approximately 12 hours apart, for 10 consecutive days.
Orbital blood samples were taken at day −3, 0, 3, 7, and 9 (day 0 was the first day of dosing). Serum samples were analyzed for T3 and T4 levels using a radioimmunoassay.
To statistically evaluate changes in T3 and T4 levels, a change from baseline was calculated from the day −3 time point. A non-parametric two-way within subject analysis of variance (ANOVA) was conducted. Also a one-way ANOVA was performed to detect if a significant difference from control occurred. Pairwise analyses between controls and each treatment group were carried out using Fisher's LSD strategy to control the experiment-wise error rate. For statistical analysis of catecholamine levels, a one-way ANOVA with factor DOSE was performed. Pairwise analyses between treated and controls at each dose were carried out using Fisher's LSD strategy to control the experiment-wise error rate.

SMILES: CNC(=O)Oc1ccc2c(c1)[C@]1(C)CCN(C)[C@@H]1N2C [physostigmine, Physostigmine sulphate, reference compound]
- convulsions on repeated administration ([1]; physostigmine 3 mg/kg p.o.): 2 of 8 animals convulsed on day 5
- mortality on repeated administration ([1]; physostigmine 10 mg/kg p.o.): 3 of 8 animals were found dead on day 2
- acute toxicity ([1]; physostigmine 30 mg/kg p.o.): Signs of toxicity were observed
- effects of repeated administration ([1]; physostigmine 0.3 or 1 mg/kg): no effects
- acute doses inducing overt behavioural effects ([1]; physostigmine p.o.): ≥ 3 mg/kg
- all dependent measures ([2]; Block 2): no significant effects on any of the dependent measures
- choice accuracy ([2]; Block 3, physostigmine 1.0 mg/kg b.i.d.): delay-independent impairment in choice accuracy
- response latency, number of trials completed ([2]; Block 5): did not significantly affect
- improvement of DMTP performance ([2]; administered alone, 10 days): did not improve performance
- reversal of the effects of scopolamine ([2]; day 11 scopolamine test): did not appear to reverse the effects of scopolamine

SMILES: N[C@@H](Cc1ccc(O)c(O)c1)C(=O)O [L-Dopa, reference compound]
- parkinsonian clinical rating vs post-MPTP ([3]; L-Dopa 2.5 mg/kg): No groups of animals demonstrated significant improvement; also recorded: no significant effect
- parkinsonian clinical rating vs post-MPTP (pre-treatment) ([3]; L-Dopa 5 and 7.5 mg/kg, except Group C at 7.5 and Group B at 5 mg/kg): significant improvement; also recorded: significant effect

- Cmax and AUC of the N-acetyl metabolite, slow vs fast acetylators [4]: much lower in the slow acetylators
SMILES: CC(=O)NCc1c[nH]c(=S)n1[C@H]1CCc2c(F)cc(F)cc2C1 [N-acetyl metabolite of nepicastat]

- reduction in serum T3 (serum T3 and T4 levels; day 3, 4 h post-dose): 31%
- reduction in serum T4 (serum T3 and T4 levels; day 3, 4 h post-dose): 46%
- reduction in serum T3 (serum T3 and T4 levels; day 7, 4 h post-dose): 42%
- reduction in serum T4 (serum T3 and T4 levels; day 7, 4 h post-dose): 58%
- reduction in serum T3 (serum T3 and T4 levels; day 9, 4 h post-dose): 44%
- effect on serum T3 and T4 levels (serum T3 and T4 levels): significantly reduced
- effect on serum T3 and T4 levels (serum T3 and T4 levels; listed as Methimazole): significantly (p<0.05) lowered
- T4 levels vs vehicle (serum T3 and T4 levels; methimazole 1.0 mg/kg, day nine): marginally (p<0.10) lower
SMILES: Cn1cc[nH]c1=S [methimazole]
